Assay [1] has as its system Human immunodeficiency virus 1. The assay can be described thus: Inhibition of HIV1 reverse transcriptase assessed as reduction in dsDNA synthesis at 2.5 mM incubated for 1 hr by PicoGreen-based spectrophotometric assay.
The subject of assay [2] is Human immunodeficiency virus 1. In words: Substrate activity at HIV1 reverse transcriptase assessed as incorporation of compound into growing DNA strand at 1 mM incubated for 1 hr using primer and template in presence of MnCl2 by gel based nucleotide incorporation assay.
The test system of assay [3] is Human immunodeficiency virus 1. In words: Substrate activity at HIV1 reverse transcriptase assessed as incorporation of compound into growing DNA strand at 500 uM incubated for 1 hr using primer and template in presence of MgCl2 by gel based nucleotide incorporation assay.
Assay [4] relates to Human immunodeficiency virus 1. The assay can be described thus: Substrate activity at HIV1 reverse transcriptase assessed as incorporation of compound into growing DNA strand at 500 to 1000 uM incubated for 1 hr using primer and template in presence of MnCl2 by gel based nucleotide incorporation assay. The settings on record: dose 500-1000 µM.
Assay [5] deals with Human immunodeficiency virus 1. In words: Substrate activity at HIV1 reverse transcriptase assessed as incorporation of compound into growing DNA strand at 500 to 1000 uM incubated for 1 hr using primer and template in presence of MgCl2 by gel based nucleotide incorporation assay. The settings on record: dose 500-1000 µM.
The subject of assay [6] is Human immunodeficiency virus 1. The assay can be described thus: Substrate activity at HIV1 reverse transcriptase assessed as incorporation of compound into growing DNA strand at 500 uM incubated for 1 hr using primer and template in presence of MnCl2 by gel based nucleotide incorporation assay.
Assay [7] is described as follows: Inhibition of HIV1 reverse transcriptase assessed as reduction in dsDNA synthesis incubated for 1 hr by PicoGreen-based spectrophotometric assay. Details: species or system Human immunodeficiency virus 1.

The structures appear in SMILES notation. pIC50: −log10 of the molar value. Active and inactive are the calls of the source. No cut-off for these calls is given here.

Regarding `C[C@H](Cn1cnc2c(N)ncnc21)OCP(=O)(O)N[C@@H](Cc1ccccc1)C(=O)O`, the “inhibition (active/not active)” value in assay [1] is “inactive”. The outcome in assay [2] was Active.
In the case of `Nc1ncnc2c1ncn2[C@H]1C[C@H](O)[C@@H](COP(=O)(O)O)O1`, the outcome in assay [3] was Active.
For `C[C@H](Cn1cnc2c(N)ncnc21)OCP(=O)(O)N[C@@H](CC(=O)O)C(=O)O`, the “inhibition (active/not active)” value in assay [1] was “inactive”. Also, the result in assay [2] was Active.
For `Nc1ncnc2c1ncn2[C@H]1C[C@H](O)[C@@H](COP(=O)(O)N[C@@H](CC(=O)O)C(=O)O)O1`, the result in assay [4] and in assay [5] was Active. In assay [1], the “inhibition (active/not active)” value is “inactive”.
Take `CSCC[C@H](NP(=O)(O)OC[C@H]1O[C@@H](n2cnc3c(N)ncnc32)C[C@@H]1O)C(=O)O`: the result in assay [4] and in assay [5] was inactive. Further, in assay [1], the “inhibition (active/not active)” value was “inactive”.
As to `Nc1ncnc2c1ncn2[C@H]1C[C@H](O)[C@@H](COP(=O)(O)N[C@@H](Cc2ccccc2)C(=O)O)O1`, the result in assay [4] and in assay [5] was inactive. The “inhibition (active/not active)” value in assay [1] is “inactive”.
With `C[C@H](Cn1cnc2c(N)ncnc21)OCP(=O)(O)O`, in assay [3], the result was inactive.
Consider `C[C@H](Cn1cnc2c(N)ncnc21)OCP(=O)(O)N[C@@H](Cc1c[nH]cn1)C(=O)O`, for which, in assay [1], the “inhibition (active/not active)” value is “inactive”. Besides, the result in assay [2] was Active.
With `N=C(N)NCCC[C@H](NP(=O)(O)OC[C@H]1O[C@@H](n2cnc3c(N)ncnc32)C[C@@H]1O)C(=O)O`, the result in assay [4] and in assay [5] was inactive. In assay [1], the “inhibition (active/not active)” value is “inactive”.
Take `C[C@H](Cn1cnc2c(N)ncnc21)OCP(=O)(O)N[C@H](CC(=O)O)C(=O)O`: in assay [3], the result was Active. In addition, the “inhibition (active/not active)” value in assay [1] is “inactive”.
Regarding `C[C@H](Cn1cnc2c(N)ncnc21)OCP(=O)(O)N[C@@H](CCC(=O)O)C(=O)O`, the Activity in assay [3] came out at 26.8%; in assay [6], 40.8%. In addition, in assay [1], the “inhibition (active/not active)” value was “inactive”.
Broadly, the pIC50 is the IC50 on a negative log10 scale, so that one unit is a factor of ten. Regarding `CSCC[C@H](NP(=O)(O)CO[C@H](C)Cn1cnc2c(N)ncnc21)C(=O)O`, in assay [7], the pIC50 is 3.84. Further, the “inhibition (active/not active)” value in assay [1] is “Active”.
`C[C@H](Cn1cnc2c(N)ncnc21)OCP(=O)(O)N[C@@H](CCCNC(=N)N)C(=O)O`: in assay [1], the “inhibition (active/not active)” value is “inactive”. Besides, in assay [2], the outcome was inactive.

The record behind these values is ChEMBL document CHEMBL4765472, “Tenofovir-Amino Acid Conjugates Act as Polymerase Substrates-Implications for Avoiding Cellular Phosphorylation in the Discovery of Nucleotide Analogues” (J Med Chem, 2021).
